Numbers after ± are expanded uncertainties.
Conditions: 293.15 K, Liquid, Vibrating tube method

FC(C(F)(F)F)C(F)(F)F [1,1,1,2,3,3,3-heptafluoropropane]
Conditions | mass density [kg/m3]
19492 kPa | 1505.8 ± 1.6
19631 kPa | 1506.6 ± 1.6
19665 kPa | 1506.5 ± 1.6
19699 kPa | 1506.6 ± 1.6
19732 kPa | 1506.9 ± 1.6
19762 kPa | 1506.9 ± 1.6
19806 kPa | 1507.1 ± 1.6
19844 kPa | 1507.3 ± 1.6
19868 kPa | 1507.3 ± 1.6
19906 kPa | 1507.5 ± 1.6
19940 kPa | 1507.7 ± 1.6
19974 kPa | 1507.8 ± 1.6
20007 kPa | 1507.9 ± 1.6
20047 kPa | 1508 ± 1.6
20080 kPa | 1508.1 ± 1.6
20109 kPa | 1508.3 ± 1.6
20152 kPa | 1508.4 ± 1.6
20190 kPa | 1508.6 ± 1.6
20215 kPa | 1508.7 ± 1.6
20258 kPa | 1508.8 ± 1.6
20302 kPa | 1508.9 ± 1.6
20335 kPa | 1509.2 ± 1.6
20375 kPa | 1509.2 ± 1.6
20404 kPa | 1509.3 ± 1.6
20434 kPa | 1509.5 ± 1.6
20478 kPa | 1509.6 ± 1.6
20517 kPa | 1509.9 ± 1.6
20546 kPa | 1510 ± 1.6
20591 kPa | 1510.1 ± 1.6
20630 kPa | 1510.1 ± 1.6
20659 kPa | 1510.3 ± 1.6
20702 kPa | 1510.5 ± 1.6
20732 kPa | 1510.6 ± 1.6
20761 kPa | 1510.6 ± 1.6
20802 kPa | 1510.8 ± 1.6
20843 kPa | 1511 ± 1.6
20873 kPa | 1511 ± 1.6
20907 kPa | 1511.2 ± 1.6
20982 kPa | 1511.5 ± 1.6
21017 kPa | 1511.6 ± 1.6
21048 kPa | 1511.8 ± 1.6
21094 kPa | 1511.9 ± 1.6
21134 kPa | 1512 ± 1.6
21164 kPa | 1512.1 ± 1.6
21209 kPa | 1512.3 ± 1.6
21245 kPa | 1512.4 ± 1.6
21279 kPa | 1512.5 ± 1.6
21314 kPa | 1512.7 ± 1.6
21359 kPa | 1512.8 ± 1.6
21389 kPa | 1513 ± 1.6
21458 kPa | 1513.1 ± 1.6
21488 kPa | 1513.2 ± 1.6
21669 kPa | 1513.9 ± 1.6
21699 kPa | 1513.9 ± 1.6
21739 kPa | 1514.2 ± 1.6
21927 kPa | 1514.8 ± 1.6
21967 kPa | 1515 ± 1.6
22009 kPa | 1515.2 ± 1.6
22034 kPa | 1515.3 ± 1.6
22076 kPa | 1515.4 ± 1.6
22122 kPa | 1515.5 ± 1.6
22152 kPa | 1515.7 ± 1.6
22194 kPa | 1515.8 ± 1.6
22230 kPa | 1515.9 ± 1.6
22261 kPa | 1516.2 ± 1.6
22291 kPa | 1516.2 ± 1.6
22322 kPa | 1516.3 ± 1.6
22358 kPa | 1516.3 ± 1.6
22404 kPa | 1516.5 ± 1.7
22440 kPa | 1516.7 ± 1.7
22476 kPa | 1516.8 ± 1.7
22522 kPa | 1516.9 ± 1.7
22548 kPa | 1517.1 ± 1.7
22584 kPa | 1517.1 ± 1.7
22625 kPa | 1517.4 ± 1.7
22661 kPa | 1517.5 ± 1.7
22702 kPa | 1517.6 ± 1.7
22744 kPa | 1517.7 ± 1.7
22781 kPa | 1517.9 ± 1.7
22813 kPa | 1518 ± 1.7
22849 kPa | 1518.2 ± 1.7
22886 kPa | 1518.3 ± 1.7
22923 kPa | 1518.4 ± 1.7
22959 kPa | 1518.6 ± 1.7
23001 kPa | 1518.7 ± 1.7
23042 kPa | 1518.8 ± 1.7
23072 kPa | 1518.8 ± 1.7
23118 kPa | 1519 ± 1.7
23154 kPa | 1519.1 ± 1.7
23191 kPa | 1519.3 ± 1.7
23228 kPa | 1519.5 ± 1.7
23271 kPa | 1519.7 ± 1.7
23308 kPa | 1519.7 ± 1.7
23350 kPa | 1519.8 ± 1.7
23392 kPa | 1520 ± 1.7
23424 kPa | 1520.1 ± 1.7
23466 kPa | 1520.2 ± 1.7
23513 kPa | 1520.5 ± 1.7
23540 kPa | 1520.6 ± 1.7
23577 kPa | 1520.5 ± 1.7
23615 kPa | 1520.7 ± 1.7
23648 kPa | 1520.9 ± 1.7
23692 kPa | 1521 ± 1.7
23735 kPa | 1521.1 ± 1.7
23815 kPa | 1521.5 ± 1.7
23852 kPa | 1521.6 ± 1.7
23883 kPa | 1521.6 ± 1.7
23925 kPa | 1521.8 ± 1.7
23962 kPa | 1521.9 ± 1.7
23986 kPa | 1522.1 ± 1.7
24019 kPa | 1522.1 ± 1.7
24048 kPa | 1522.3 ± 1.7
24087 kPa | 1522.4 ± 1.7
24120 kPa | 1522.5 ± 1.7
24149 kPa | 1522.6 ± 1.7
24187 kPa | 1522.7 ± 1.7
24229 kPa | 1522.8 ± 1.7
24263 kPa | 1523 ± 1.7
24297 kPa | 1523 ± 1.7
24326 kPa | 1523.2 ± 1.7
24354 kPa | 1523.2 ± 1.7
24393 kPa | 1523.3 ± 1.7
24422 kPa | 1523.3 ± 1.7
24451 kPa | 1523.5 ± 1.7
24485 kPa | 1523.6 ± 1.7
24524 kPa | 1523.8 ± 1.7
24553 kPa | 1523.9 ± 1.7
24587 kPa | 1524.1 ± 1.7
24630 kPa | 1524.2 ± 1.7
24659 kPa | 1524.3 ± 1.7
24698 kPa | 1524.5 ± 1.7
24728 kPa | 1524.6 ± 1.7
24757 kPa | 1524.6 ± 1.7
24786 kPa | 1524.7 ± 1.7
24816 kPa | 1524.7 ± 1.7
24851 kPa | 1524.9 ± 1.7
24886 kPa | 1525 ± 1.7
24920 kPa | 1525.2 ± 1.7
24949 kPa | 1525.2 ± 1.7
24991 kPa | 1525.5 ± 1.7
25030 kPa | 1525.6 ± 1.7
25059 kPa | 1525.6 ± 1.7
25097 kPa | 1525.8 ± 1.7
25136 kPa | 1525.9 ± 1.7
25165 kPa | 1526.1 ± 1.7
25199 kPa | 1526.1 ± 1.7
25229 kPa | 1526.1 ± 1.7
25268 kPa | 1526.4 ± 1.7
25297 kPa | 1526.4 ± 1.7
25326 kPa | 1526.6 ± 1.7
25360 kPa | 1526.8 ± 1.7
25393 kPa | 1526.6 ± 1.7
25438 kPa | 1526.9 ± 1.7
25466 kPa | 1527 ± 1.7
25496 kPa | 1527.2 ± 1.7
25530 kPa | 1527.2 ± 1.7
25569 kPa | 1527.4 ± 1.7
25594 kPa | 1527.4 ± 1.7
25639 kPa | 1527.4 ± 1.7
25678 kPa | 1527.7 ± 1.7
25708 kPa | 1527.9 ± 1.7
25747 kPa | 1527.9 ± 1.7
25791 kPa | 1528.1 ± 1.7
25816 kPa | 1528.2 ± 1.7
25845 kPa | 1528.1 ± 1.7
25889 kPa | 1528.4 ± 1.7
25923 kPa | 1528.5 ± 1.7
25958 kPa | 1528.6 ± 1.7
25994 kPa | 1528.8 ± 1.7
26024 kPa | 1528.9 ± 1.7
26068 kPa | 1529 ± 1.7
26112 kPa | 1529.1 ± 1.7
26141 kPa | 1529.3 ± 1.7
26181 kPa | 1529.4 ± 1.7
26220 kPa | 1529.5 ± 1.7
26250 kPa | 1529.5 ± 1.7
26284 kPa | 1529.7 ± 1.7
26319 kPa | 1529.8 ± 1.7
26349 kPa | 1529.9 ± 1.7
26391 kPa | 1530.1 ± 1.7
26430 kPa | 1530.1 ± 1.7
26455 kPa | 1530.3 ± 1.7
26504 kPa | 1530.5 ± 1.7
26534 kPa | 1530.6 ± 1.7
26570 kPa | 1530.6 ± 1.7
26610 kPa | 1530.7 ± 1.7
26646 kPa | 1530.8 ± 1.7
26682 kPa | 1530.9 ± 1.7
26717 kPa | 1531.1 ± 1.7
26753 kPa | 1531.3 ± 1.7
26784 kPa | 1531.3 ± 1.7
26824 kPa | 1531.4 ± 1.7
26864 kPa | 1531.6 ± 1.7
26899 kPa | 1531.6 ± 1.7
26939 kPa | 1531.8 ± 1.7
26979 kPa | 1532 ± 1.7
27009 kPa | 1532.1 ± 1.7
27045 kPa | 1532.2 ± 1.7
27080 kPa | 1532.3 ± 1.7
27115 kPa | 1532.4 ± 1.7
27151 kPa | 1532.6 ± 1.7
27188 kPa | 1532.6 ± 1.7
27224 kPa | 1532.8 ± 1.7
27265 kPa | 1532.9 ± 1.7
27302 kPa | 1533.1 ± 1.7

Source: the NIST ThermoML archive (doi:10.1021/je700260f)
